Reference: ChEMBL document CHEMBL1136147, “Sub-nanomolar hMC1R agonists by end-capping of the melanocortin tetrapeptide His-D-Phe-Arg-Trp-NH(2)” (Bioorg Med Chem Lett, 2003)

Experiments:
Melanocortin receptor 4 [1] = target: T1, Melanocortin receptor 4 (Homo sapiens, UniProt P32245); test: In vitro agonist potency was evaluated in HEK293 cells transfected with human melanocortin receptor (hMC4R); type: functional, cell-based
Melanocortin receptor 3 [2] = target: T2, Melanocortin receptor 3 (Homo sapiens, UniProt P41968); test: In vitro agonist potency was evaluated in HEK293 cells transfected with human melanocortin receptor (hMC3R); type: functional, cell-based
T2 sequence (P41968 whole entry): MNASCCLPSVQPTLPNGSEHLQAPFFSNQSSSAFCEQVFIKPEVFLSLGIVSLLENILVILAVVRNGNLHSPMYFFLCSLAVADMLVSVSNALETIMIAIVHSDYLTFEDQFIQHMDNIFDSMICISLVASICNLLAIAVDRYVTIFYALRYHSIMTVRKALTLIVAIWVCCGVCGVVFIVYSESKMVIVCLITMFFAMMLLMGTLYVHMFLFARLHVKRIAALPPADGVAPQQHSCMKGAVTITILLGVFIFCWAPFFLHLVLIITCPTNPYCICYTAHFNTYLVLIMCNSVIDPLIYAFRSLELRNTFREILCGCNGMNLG

Melanocortin receptor 4 [3] = target: T1, Melanocortin receptor 4; test: Binding affinity towards human melanocortin 4 receptor (hMC4R)
[4] = target: T3, Melanocyte-stimulating hormone receptor (Homo sapiens, UniProt Q01726); test: Binding affinity towards human Melanocortin 1 receptor (hMC1R)
T3 sequence (Q01726 whole entry): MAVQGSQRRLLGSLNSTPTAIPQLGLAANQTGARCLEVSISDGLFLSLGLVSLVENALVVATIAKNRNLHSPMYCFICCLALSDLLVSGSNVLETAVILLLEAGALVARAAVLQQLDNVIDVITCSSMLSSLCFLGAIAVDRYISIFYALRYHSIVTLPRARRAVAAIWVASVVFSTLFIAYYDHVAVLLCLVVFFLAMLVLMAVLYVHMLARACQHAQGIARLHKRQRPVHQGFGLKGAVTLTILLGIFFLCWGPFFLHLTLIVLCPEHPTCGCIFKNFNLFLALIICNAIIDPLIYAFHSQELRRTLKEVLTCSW

[5] = target: T3, Melanocyte-stimulating hormone receptor; test: In vitro agonist potency was evaluated in HEK293 cells transfected with human melanocortin receptor (hMC1R); type: functional, cell-based
Melanocortin receptor 3 [6] = target: T2, Melanocortin receptor 3; test: Binding affinity towards human Melanocortin 3 receptor (hMC3R)

T1 sequence (P32245 whole entry): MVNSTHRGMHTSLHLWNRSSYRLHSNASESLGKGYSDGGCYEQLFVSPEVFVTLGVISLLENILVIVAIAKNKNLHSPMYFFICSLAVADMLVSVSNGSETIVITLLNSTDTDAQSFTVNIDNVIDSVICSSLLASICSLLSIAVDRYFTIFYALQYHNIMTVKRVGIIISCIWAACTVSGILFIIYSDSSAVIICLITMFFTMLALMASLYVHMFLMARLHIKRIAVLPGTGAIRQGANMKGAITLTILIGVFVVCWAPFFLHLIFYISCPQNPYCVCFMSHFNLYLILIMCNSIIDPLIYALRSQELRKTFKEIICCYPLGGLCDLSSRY

| Structure (SMILES) | EC50 (Melanocortin receptor 4 [1]) | EC50 (Melanocortin receptor 3 [2]) | Ki (Melanocortin receptor 4 [3]) | Ki [4] | EC50 [5] | Ki (Melanocortin receptor 3 [6]) |
| --- | --- | --- | --- | --- | --- | --- |
| N=C(N)NCCC[C@H](NC(=O)[C@H](Cc1ccccc1)NC(=O)[C@H](Cc1cnc[nH]1)NC(=O)Cc1ccc(Cl)cc1)C(=O)N[C@@H](Cc1c[nH]c2ccccc12)C(N)=O | 7.5 nM | 9.3 nM | 5 nM | 3.5 nM | 9.5 nM | 20 nM |
| N=C(N)NCCC[C@H](NC(=O)[C@H](Cc1ccccc1)NC(=O)[C@H](Cc1c[nH]cn1)NC(=O)CCc1ccccc1)C(=O)N[C@@H](Cc1c[nH]c2ccccc12)C(N)=O | 20 nM | 17 nM | 49 nM | 6 nM | 0.5 nM | 65 nM |
| NC(=O)[C@H](Cc1c[nH]c2ccccc12)NC(=O)[C@H](CCCN=C(N)N)NC(=O)[C@@H](Cc1ccccc1)NC(=O)[C@H](Cc1cnc[nH]1)NC(=O)CCCc1ccccc1 | – | – | – | 0.006 nM | 0.009 nM | 13.5 nM |
| CC(C)(C)C(=O)N[C@@H](Cc1cnc[nH]1)C(=O)N[C@@H](Cc1ccccc1)C(=O)N[C@@H](CCCNC(=N)N)C(=O)N[C@@H](Cc1c[nH]c2ccccc12)C(N)=O | 14.5 nM | 13 nM | 160 nM | 43 nM | 5 nM | 130 nM |
| N=C(N)NCCC[C@H](NC(=O)[C@H](Cc1ccccc1)NC(=O)[C@H](Cc1cnc[nH]1)NS(=O)(=O)c1ccc(Cl)cc1)C(=O)N[C@@H](Cc1c[nH]c2ccccc12)C(N)=O | 11 nM | 390 nM | 66.5 nM | 170 nM | 33.3 nM | 440 nM |
| COCC(=O)N[C@@H](Cc1cnc[nH]1)C(=O)N[C@@H](Cc1ccccc1)C(=O)N[C@@H](CCCNC(=N)N)C(=O)N[C@@H](Cc1c[nH]c2ccccc12)C(N)=O | 42.5 nM | 570 nM | 350 nM | 91.5 nM | 9.5 nM | 380 nM |
| N=C(N)NCCC[C@H](NC(=O)[C@H](Cc1ccccc1)NC(=O)[C@H](Cc1cnc[nH]1)NC(=O)C(N)=O)C(=O)N[C@@H](Cc1c[nH]c2ccccc12)C(N)=O | 16.5 nM | 58 nM | 140 nM | 62 nM | 7 nM | 160 nM |
| CSCC(=O)N[C@@H](Cc1cnc[nH]1)C(=O)N[C@@H](Cc1ccccc1)C(=O)N[C@@H](CCCNC(=N)N)C(=O)N[C@@H](Cc1c[nH]c2ccccc12)C(N)=O | 41 nM | 230 nM | 210 nM | 57.5 nM | 9 nM | 230 nM |
| N=C(N)NCCC[C@H](NC(=O)[C@H](Cc1ccccc1)NC(=O)[C@H](Cc1cnc[nH]1)NC(=O)CCCO)C(=O)N[C@@H](Cc1c[nH]c2ccccc12)C(N)=O | 21.3 nM | 640 nM | 100 nM | 34 nM | 13.7 nM | 440 nM |
| CCCC(=O)N[C@@H](Cc1cnc[nH]1)C(=O)N[C@@H](Cc1ccccc1)C(=O)N[C@@H](CCCNC(=N)N)C(=O)N[C@@H](Cc1c[nH]c2ccccc12)C(N)=O | 38.5 nM | 93.3 nM | 150 nM | 37.5 nM | 4.5 nM | 580 nM |
| CCCCC(=O)N[C@@H](Cc1cnc[nH]1)C(=O)N[C@@H](Cc1ccccc1)C(=O)N[C@@H](CCCNC(=N)N)C(=O)N[C@@H](Cc1c[nH]c2ccccc12)C(N)=O | 26.5 nM | 45 nM | 120 nM | 20.5 nM | 2 nM | 170 nM |
| CC(C)C(=O)N[C@@H](Cc1cnc[nH]1)C(=O)N[C@@H](Cc1ccccc1)C(=O)N[C@@H](CCCNC(=N)N)C(=O)N[C@@H](Cc1c[nH]c2ccccc12)C(N)=O | 24 nM | 130 nM | 97.5 nM | 40 nM | 7 nM | 280 nM |
| N=C(N)NCCC[C@H](NC(=O)[C@H](Cc1ccccc1)NC(=O)[C@H](Cc1cnc[nH]1)NC(=O)C1CC1)C(=O)N[C@@H](Cc1c[nH]c2ccccc12)C(N)=O | 20.5 nM | 71 nM | 87 nM | 43 nM | 3.5 nM | 210 nM |
| N=C(N)NCCC[C@H](NC(=O)[C@H](Cc1ccccc1)NC(=O)[C@H](Cc1c[nH]cn1)NC(=O)C(O)Cc1ccccc1)C(=O)N[C@@H](Cc1c[nH]c2ccccc12)C(N)=O (some centres undefined) | 6.3 nM | 40.5 nM | 15.5 nM | 11.5 nM | 8 nM | 140 nM |
| N=C(N)NCCC[C@H](NC(=O)[C@H](Cc1ccccc1)NC(=O)[C@@H](N)Cc1cnc[nH]1)C(=O)N[C@@H](Cc1c[nH]c2ccccc12)C(N)=O | 29.7 nM | 350 nM | 180 nM | 51 nM | 31.8 nM | 890 nM |

Now from value to compound:

| EC50 (Melanocortin receptor 4 [1]) | EC50 (Melanocortin receptor 3 [2]) | Ki (Melanocortin receptor 4 [3]) | Ki [4] | EC50 [5] | Ki (Melanocortin receptor 3 [6]) | Structure (SMILES) |
| --- | --- | --- | --- | --- | --- | --- |
| 22.5 nM | 120 nM | 170 nM | 63.5 nM | 6.5 nM | 540 nM | N=C(N)NCCC[C@H](NC(=O)[C@H](Cc1ccccc1)NC(=O)[C@H](Cc1c[nH]cn1)NC(=O)CC(F)(F)F)C(=O)N[C@@H](Cc1c[nH]c2ccccc12)C(N)=O |
| 38.5 nM | 450 nM | 160 nM | 47.5 nM | 7.5 nM | 540 nM | CCC(=O)N[C@@H](Cc1c[nH]cn1)C(=O)N[C@@H](Cc1ccccc1)C(=O)N[C@@H](CCCN=C(N)N)C(=O)N[C@@H](Cc1c[nH]c2ccccc12)C(N)=O |
| 18 nM | 160 nM | 110 nM | 86.5 nM | 8 nM | 350 nM | N#CCC(=O)N[C@@H](Cc1c[nH]cn1)C(=O)N[C@@H](Cc1ccccc1)C(=O)N[C@@H](CCCNC(=N)N)C(=O)N[C@@H](Cc1c[nH]c2ccccc12)C(N)=O |
| 28 nM | 98.3 nM | 160 nM | 30 nM | 6.8 nM | 260 nM | N=C(N)NCCC[C@H](NC(=O)[C@H](Cc1ccccc1)NC(=O)[C@H](Cc1c[nH]cn1)NC(=O)c1ccccc1)C(=O)N[C@@H](Cc1c[nH]c2ccccc12)C(N)=O |
| 53 nM | 300 nM | 440 nM | 125 nM | 7 nM | 630 nM | N=C(N)NCCC[C@H](NC(=O)[C@H](Cc1ccccc1)NC(=O)[C@H](Cc1c[nH]cn1)NC(=O)CO)C(=O)N[C@@H](Cc1c[nH]c2ccccc12)C(N)=O |
| 13 nM | 28 nM | 100 nM | 17.5 nM | 2 nM | 66.5 nM | N=C(N)NCCC[C@H](NC(=O)[C@H](Cc1ccccc1)NC(=O)[C@H](Cc1c[nH]cn1)NC(=O)Cc1ccccc1)C(=O)N[C@@H](Cc1c[nH]c2ccccc12)C(N)=O |
| 21.5 nM | 840 nM | 170 nM | 260 nM | 88 nM | 1900 nM | CS(=O)(=O)N[C@@H](Cc1c[nH]cn1)C(=O)N[C@@H](Cc1ccccc1)C(=O)N[C@@H](CCCN=C(N)N)C(=O)N[C@@H](Cc1c[nH]c2ccccc12)C(N)=O |
| 11.5 nM | 6 nM | 68 nM | 6 nM | 2 nM | 110 nM | N=C(N)NCCC[C@H](NC(=O)[C@H](Cc1ccccc1)NC(=O)[C@H](Cc1c[nH]cn1)NC(=O)COc1ccc(Cl)cc1)C(=O)N[C@@H](Cc1c[nH]c2ccccc12)C(N)=O |
| – | 170 nM | – | 37 nM | 13 nM | 770 nM | CC(=O)N[C@@H](Cc1c[nH]cn1)C(=O)N[C@@H](Cc1ccccc1)C(=O)N[C@@H](CCCN=C(N)N)C(=O)N[C@@H](Cc1c[nH]c2ccccc12)C(N)=O |
